# Measured values from doi:10.1101/2023.12.14.571638v1, “Structural basis of a regulatory switch in mammalian complex I” (biorxiv, 2023).
# What was measured:
# [1] = target: T1, complex I (CI), NADH-binding site (Bos taurus, UniProt P25708); test: NADH oxidation by CI-PLs with AOX, absorbance; assay type: biochemical; settings: 200 µM NADH, ubiquinone-10, AOX; pH 7.5, 32 °C
# T1 construct: gene NDUFV1; native 45-subunit complex from heart mitochondria, purified in LMNG, in proteoliposomes; with NADH dehydrogenase [ubiquinone] flavoprotein 2, mitochondrial; NADH-ubiquinone oxidoreductase 75 kDa subunit, mitochondrial; NADH dehydrogenase [ubiquinone] iron-sulfur protein 2, mitochondrial; NADH dehydrogenase [ubiquinone] iron-sulfur protein 7, mitochondrial
# [2] = target: T1, complex I (CI), NADH-binding site; test: NADH:APAD+ oxidoreduction, absorbance; assay type: biochemical; settings: 500 µM APAD+, 100 µM NADH, 500 nM piericidin A; pH 7.5, 32 °C
# [3] = target: T2, complex I (CI), ubiquinone-10-binding site (Bos taurus, UniProt P03887+P17694+P42026); test: cryoEM structure in proteoliposomes; settings: CI-out-closed state, 2.5 Å; native substrate, deep-bound
# T2 construct: gene NDUFS2; native 45-subunit complex from heart mitochondria, purified in LMNG, reconstituted in proteoliposomes (CI-PLs); natural variant NDUFS2-129 modelled as Arg; with NADH-ubiquinone oxidoreductase chain 3; NADH-ubiquinone oxidoreductase chain 6; NADH dehydrogenase [ubiquinone]; 1 alpha subcomplex subunit 9, mitochondrial
# T2 sequence (P17694 34-463): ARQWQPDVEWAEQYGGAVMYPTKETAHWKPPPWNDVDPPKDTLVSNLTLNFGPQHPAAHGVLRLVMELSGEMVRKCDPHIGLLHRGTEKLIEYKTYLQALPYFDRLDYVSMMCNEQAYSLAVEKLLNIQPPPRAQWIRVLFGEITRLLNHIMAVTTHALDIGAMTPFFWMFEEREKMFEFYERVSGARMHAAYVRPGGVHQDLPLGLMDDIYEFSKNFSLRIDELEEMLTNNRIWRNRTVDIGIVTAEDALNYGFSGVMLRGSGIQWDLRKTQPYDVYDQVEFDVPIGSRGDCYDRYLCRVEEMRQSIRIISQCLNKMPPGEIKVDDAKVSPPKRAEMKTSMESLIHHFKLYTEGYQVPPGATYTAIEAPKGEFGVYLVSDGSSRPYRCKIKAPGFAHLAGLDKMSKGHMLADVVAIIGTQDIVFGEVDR
# T2 sequence (P03887 whole entry): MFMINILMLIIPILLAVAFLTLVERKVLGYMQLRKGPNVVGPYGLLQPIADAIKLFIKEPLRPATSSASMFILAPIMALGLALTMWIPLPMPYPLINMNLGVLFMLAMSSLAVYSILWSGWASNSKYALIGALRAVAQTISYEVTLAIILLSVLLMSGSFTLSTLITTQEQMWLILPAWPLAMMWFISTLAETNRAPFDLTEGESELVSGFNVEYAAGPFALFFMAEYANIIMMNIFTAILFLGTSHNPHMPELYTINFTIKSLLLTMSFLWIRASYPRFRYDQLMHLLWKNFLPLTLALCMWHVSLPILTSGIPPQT
# T2 sequence (P42026 38-216): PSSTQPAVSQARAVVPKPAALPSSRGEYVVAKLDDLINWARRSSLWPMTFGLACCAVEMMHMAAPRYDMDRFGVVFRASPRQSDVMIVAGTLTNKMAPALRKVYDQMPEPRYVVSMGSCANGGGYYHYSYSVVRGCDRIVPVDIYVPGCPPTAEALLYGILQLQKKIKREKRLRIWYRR
# T1 sequence (P25708 21-464, one chain of several): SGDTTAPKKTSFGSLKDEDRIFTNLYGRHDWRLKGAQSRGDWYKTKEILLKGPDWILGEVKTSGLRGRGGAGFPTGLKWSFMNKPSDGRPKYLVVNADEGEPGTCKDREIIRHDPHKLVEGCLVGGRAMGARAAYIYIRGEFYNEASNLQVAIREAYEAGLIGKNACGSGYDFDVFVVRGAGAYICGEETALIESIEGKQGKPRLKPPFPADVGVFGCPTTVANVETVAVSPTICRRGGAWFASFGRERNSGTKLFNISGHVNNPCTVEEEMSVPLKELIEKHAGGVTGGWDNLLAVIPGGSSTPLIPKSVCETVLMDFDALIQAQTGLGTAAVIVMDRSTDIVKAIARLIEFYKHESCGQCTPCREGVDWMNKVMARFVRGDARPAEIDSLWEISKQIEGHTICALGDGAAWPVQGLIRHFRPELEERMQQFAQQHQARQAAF
compound,measurement,setting,value
NC(=O)C1=CN([C@@H]2O[C@H](COP(=O)(O)OP(=O)(O)OC[C@H]3O[C@@H](n4cnc5c(N)ncnc54)[C@H](O)[C@@H]3O)[C@@H](O)[C@H]2O)C=CC1 [NADH],"NADH oxidation by CI-PLs with AOX, absorbance",[1],NADH:O2 oxidoreduction rates were measured as the rates of NADH oxidation
CC(=O)c1ccc[n+]([C@@H]2O[C@H](COP(=O)([O-])OP(=O)(O)OC[C@H]3O[C@@H](n4cnc5c(N)ncnc54)[C@H](O)[C@@H]3O)[C@@H](O)[C@H]2O)c1 [APAD^+],"NADH:APAD+ oxidoreduction, absorbance",[2],Complex I concentration in CI-PLs was determined using the NADH:APAD^+ oxidoreduction reaction
COC1=C(OC)C(=O)C(C/C=C(\C)CC/C=C(\C)CC/C=C(\C)CC/C=C(\C)CC/C=C(\C)CC/C=C(\C)CC/C=C(\C)CC/C=C(\C)CC/C=C(\C)CCC=C(C)C)=C(C)C1=O [ubiquinone-10],cryoEM structure in proteoliposomes,[3],"The CI-in/out-closed structures exhibit well-ordered density for ubiquinone-10, inserted fully into its active site"
